Data on seven molecules can be found in PubChem BioAssay (NCI).

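96-well plates; 48 h exposure; 5 concentrations. Endpoints by linear interpolation between flanking doses. Not reached: highest tested concentration assigned. TGI: total growth inhibition.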

Assay in all cases: inhibition of tumour cell growth, NCI panel, 48 h
In assay [1] the test system is A498 renal.
The subject of assay [2] is A549 NSCLC.
Assay [3] has as its system CAKI-1 renal.
Assay [4] concerns DU-145 prostate.
Assay [5] deals with HCT-116 colon.
In assay [6] the test system is HOP-62 NSCLC.
Assay [7] deals with HT29 colon.
Assay [8] deals with LOX IMVI melanoma.
Assay [9] deals with MDA-MB-435.
The subject of assay [10] is MDA-N.
The subject of assay [11] is NCI-H226 lung.
Assay [12] concerns PC-3 prostate.
For assay [13], the system named is SF-295 CNS.
For assay [14], the system named is SN12C renal.
In assay [15] the test system is SR leukemia.
Assay [16] relates to SW-620 colon.
The test system of assay [17] is TK-10 renal.
Assay [18] has as its system U251 CNS.
Assay [19] deals with UACC-62 melanoma.
Assay [20] deals with UO-31 renal.

With `Brc1ccc(-c2ccc(-c3ccc(-c4ccc(Br)s4)s3)s2)s1`, the TGI in assay [1], in assay [2], in assay [3], in assay [4], in [5] and in assay [6] was over 100 µM throughout. The TGI in [7], in assay [8], in assay [9], in [10], in assay [11] and in assay [12] was over 100 µM in each case. Moreover, the TGI in assay [13], in assay [14], in assay [15], in assay [16], in assay [17] and in assay [18] was over 100 µM throughout. Also, the TGI in [19] and in assay [20] was over 100 µM throughout.
As to `CC(=O)OCC1OC(O[C@@H]2C[C@H]3C(C)(C)[C@H](OC(C)=O)CC[C@]3(C)[C@H]3CC[C@@]45C[C@H](O)C[C@H](C)[C@@H]4CC=C5[C@@]32C)C(O)C(O)C1O` (stereo not given in full), the TGI in assay [1] is 15.8 µM; in [2], 16.9 µM; in assay [3], 24.6 µM; in assay [4], 20.6 µM; in assay [5] it was 4.85 µM; in assay [6], 23.8 µM. Also, the TGI amounted to 3.7 µM in [7]; 4.07 µM in [8]; 11.2 µM in assay [9]; 12.4 µM in assay [10]; 16.1 µM in [11]; 10.7 µM in assay [12]. Moreover, the TGI is 12.5 µM in assay [13]; 15.5 µM in assay [14]; 4.27 µM in [15]; 16.6 µM in [16]; 21.4 µM in assay [17]; 10.3 µM in assay [18]. Further, the TGI in assay [19] is 16.6 µM; in assay [20], 26.3 µM.
In the case of `Cc1cc2c(cc1C)C(=O)c1ncccc1C2=O`, the TGI was over 100 µM in [1]; over 100 µM in [2]; over 100 µM in assay [3]; over 100 µM in [4]; 61.1 µM in [5]; over 100 µM in assay [6]. In addition, the TGI in assay [7] is over 100 µM; in [8] it was over 100 µM; in [9], 34.4 µM; in assay [10], 36.2 µM; in assay [11] it was over 100 µM; in assay [12] it was over 100 µM. For the same molecule, the TGI in assay [13] is over 100 µM; in [14], over 100 µM; in assay [15], 25 µM; in assay [16] it was over 100 µM; in assay [17], over 100 µM; in assay [18], over 100 µM. For the same molecule, the TGI in assay [19] and in [20] was over 100 µM throughout.
In the case of `O=[N+]([O-])c1nccn1CCCN=c1c2ccccc2n(O)c2ccccc12`, the TGI in assay [1], in [2], in [3], in assay [4], in assay [5] and in assay [6] was over 100 µM each time. For the same molecule, the TGI in [7], in assay [8], in assay [9], in assay [10], in assay [11] and in [12] was over 100 µM throughout. For the same molecule, the TGI in assay [13], in assay [14], in [15], in [16], in assay [17] and in assay [18] was over 100 µM each time. Moreover, the TGI in [19] and in assay [20] was over 100 µM in each case.
Take `C/C=C1/CN2CCC34C5=CC(=O)C(c6cc7c(cc6OC)N(C)C6=C(C(=O)OC)CC8(CC)CCCN9CCC67C98)=CC5=NC23CCC1C4C(=O)OC` (stereo not given): the TGI amounted to 30.2 µM in assay [1]; 30.3 µM in assay [2]; 21.9 µM in assay [3]; 37.2 µM in assay [4]; 23.1 µM in [5]; 31.5 µM in [6]. Further, the TGI in [7] came out at 28 µM; in assay [8], 31 µM; in [9], 26 µM; in assay [10], 27 µM; in assay [11] it was 39 µM; in [12] it was 26 µM. Also, the TGI in assay [13] stood at 31.6 µM; in [14], 27.7 µM; in assay [15], 6.63 µM; in assay [16] it was 21.8 µM; in assay [17], 30.9 µM; in assay [18], 28.6 µM. The TGI in assay [19] was found to be 31.1 µM; in assay [20], 24.6 µM.
For `COc1ccc(-c2cn3c(nc4ccccc43)c(C)n2)cc1`, the TGI in [1], in assay [2], in assay [3], in assay [4], in assay [5] and in assay [6] was over 100 µM throughout. In addition, the TGI in [7], in assay [8], in assay [9], in assay [10], in [11] and in [12] was over 100 µM throughout. The TGI in assay [13], in assay [14], in assay [15], in assay [16], in assay [17] and in assay [18] was over 100 µM throughout. Moreover, the results for the TGI in assay [19] and in assay [20] were over 91.5 µM and over 64.6 µM, respectively.
Consider `Oc1c(Cl)ccc2cccnc12`, for which the TGI in assay [1] was 33.1 µM; in [2] it was over 100 µM; in assay [3], over 100 µM; in assay [4], over 100 µM; in assay [5], 4.56 µM; in assay [6], 59.6 µM. Further, the TGI is over 100 µM in assay [7]; 29.7 µM in [8]; over 100 µM in assay [9]; over 100 µM in [10]; 71.2 µM in assay [11]; over 100 µM in assay [12]. Also, the TGI in assay [13] is 68.4 µM; in assay [14], 88.5 µM; in assay [15], 13.5 µM; in assay [16], over 100 µM; in assay [17] it was over 100 µM; in assay [18] it was over 100 µM. The TGI in assay [19] was found to be 8.09 µM; in assay [20] it was 41.1 µM.
